# Patent publication EP0306160A2, “Molluscicides” (BRITISH TECHNOLOGY GROUP LIMITED, priority 1987, dated 1989)
# Like-named read-outs stand apart in the source and are kept apart here.
# Key:
# Type in all cases: in vivo
# [1] = test system: grey field slugs, Deroceras reticulatum; test: Contact with coated glass plate; details: for LC₅₀ On glass (50 min)., Mean: mean of all tests
# Protocol: (§1) All laboratory tests were made with field-collected grey field slugs, Deroceras reticulatum (Pulmonata, Limacidae) and also with Arion hortensis in the weight range 0.4-0.6g. They were held in polythene bowls on wet filter paper in a controlled environment cabinet cycling 12 hours light at 15°C and 12 hours dark at 5°C. Voluntary feeding tests were made under these conditions but all other laboratory bioassays were carried out at 10°C constant temperature with an overnight pre-treatment period also at 10°C.
# Groups of ten slugs were placed foot-down on sheets of glass, 10 cm x 10 cm, previously coated with an aqueous solution of suspension of test chemical and air dried to leave a deposit of known weight per unit area. Slugs were confined to a treated area for a period of 50 minutes at 10°C on plates with increasing surface loadings, then removed and held in wet filter paper-floored petri dishes with food. The number of dead slugs after seven days was recorded and the values used to calculate median lethal surface concentrations ('LC₅₀') for each compound by probit analysis.
# [2] = test system: grey field slugs, Deroceras reticulatum; test: Contact with treated soil surface; details: mean of all tests
# Protocol: as §1
# Groups of ten slugs were held in plastic seed trays, 20 x 34 cm x 5 cm deep, filled to a depth of 1 cm with standard soil, a sandy clay loam from Rothamsted Farm, with a pH in water of 5.2, previously oven-dried, sieved (2 mm mesh), and rewetted to field capacity in the trays. Test chemicals were mixed with 5g dry soil, ground together and sprinkled on to the wet soil surface. Slugs were confined to the treated surface by a 16 v pulsed DC electric fence attached to the tray sides. Trays were covered to maintain a high Relative Humidity and food was provided. Dead slugs were removed daily and the final mortality count made after 10 days.
# [3] = test system: Deroceras reticulatum; test: Bait bioassay with increasing concentrations in standard bait (Examples 19-35); details: for Kill: 4 days
# Protocol: Test compounds were incorporated into a standard wheat-flour-based edible carrier containing 10% paraffin wax binder and 2.5% sucrose phagostimulant, in increasing concentrations 0, 1, 4, 7, 10, 13 and 16% a.i.
# Groups of ten field-collected D. reticulatum in the weight range 400-600 mg were confined with 0.5 g DM test bait at each concentration for a period of 4 days under a regime of 12 h dark @ 5°C and 12 light @ 15°C. Weight of bait eaten and number of slugs killed were recorded. Each group of compounds was tested against a concurrently run Al(ac.ac)₃ standard bait.
# In Examples 23 to 35, where six groups of ten slugs are offered bait containing 1,4,7,10,13 or 16% a.i., have been reduced to two values, (i), the total amount of a.i. ingested (mg) which gives an indication of the palatability of the compound, and (ii), the total number of slugs killed (x/60) which, with (i), gives an indication of its relative toxicity.
# [4] = test system: grey field slugs, Deroceras reticulatum; test: Stomach poison action, voluntary feeding (wheatmeal bait)
# Protocol: as §1
# Test chemicals were offered to slugs at a range of concentrations in a wheat-meal based formulation, groups of ten slugs being confined in 15 cm crystallising dishes containing only wet filter paper and a solid watch glass filled with 3 g (dry weight) of test bait for four 24-hour cycles […]
# [5] = test system: slugs; test: Laboratory test, standard baits containing 1% metal ion, no alternative food (Example 17); details: 3 replicates of 10 slugs; standard bait containing 1% metal ion
# Protocol: as §1
# Laboratory tests where 3 replicates of 10 slugs were confined with standard baits containing 1% metal ion in different compounds, and no alternative food supplied, gave the following results: Aluminium sulphate (Al₂(SO₄)₃): 0/10, 0/10, 0/10 killed Aluminium acetylacetonate: 10/10, 10/10, 10/10 killed (Ex 17)
# [6] = test system: slugs; test: Field comparison of baits (grass/clover), Table VII; details: first 4 days of trial; bait 10 % ai, 2.5 % sucrose (PP pellets 6 % ai, Draza pellets 4 % ai)
# Excerpt: In Table VII there is presented a comparison of the efficacy of present iron and aluminium chelates with metaldehyde and methiocarb under field conditions (grass/clover).
compound,measurement,setting,value
"CC(=O)C=C(C)[O][Al]([O]C(C)=CC(C)=O)[O]C(C)=CC(C)=O [Example 19, Tris (2,4-pentanedionato) Al III]",LC₅₀ On glass (50 min).,"[1]; individual tests, 50 min contact at 10°C, dead after seven days, bracketed values estimated, listed as Al^III acetylacetonate",(10-100)(Example 1) µg metal cm²
same,"LC₅₀ On glass (50 min)., Mean",[1],(< 100) µg metal cm²
same,"LC₅₀ On soil (10 days), Mean",[2],34.1 µg metal/cm²
same,Kill,[3]; 1 % a.i. in standard bait,0 x/10
same,Kill,[3]; 4 % a.i. in standard bait,0 x/10
same,Kill,[3]; 7 % a.i. in standard bait,6 x/10
same,Kill,[3]; 10 % a.i. in standard bait,7 x/10
same,Kill,[3]; 13 % a.i. in standard bait,8 x/10
same,Kill,[3]; 16 % a.i. in standard bait,8 x/10
same,mortality at 0.01 %,"[4]; Deroceras reticulatum, po, 168 h, 0.01 % Al in wheatmeal bait, read-out: Mortality after 7 days",10%
same,mortality at 0.03 %,"[4]; Deroceras reticulatum, po, 168 h, 0.03 % Al in wheatmeal bait, read-out: Mortality after 7 days",10%
same,mortality at 0.1 %,"[4]; Deroceras reticulatum, po, 168 h, 0.1 % Al in wheatmeal bait, read-out: Mortality after 7 days",20%
same,mortality at 0.3 %,"[4]; Deroceras reticulatum, po, 168 h, 0.3 % Al in wheatmeal bait, read-out: Mortality after 7 days",40%
same,mortality at 1 %,"[4]; Deroceras reticulatum, po, 168 h, 1.0 % Al in wheatmeal bait, read-out: Mortality after 7 days",100%
same,mortality at 3 %,"[4]; Deroceras reticulatum, po, 168 h, 3.0 % Al in wheatmeal bait, read-out: Mortality after 7 days",100%
same,mortality at 0.1 %,"[4]; Deroceras reticulatum, po, 216 h, 0.1 % Metal in wheatmeal bait (Table III), read-out: Mortality after 9 days",40%
same,mortality at 0.5 %,"[4]; Deroceras reticulatum, po, 216 h, 0.5 % Metal in wheatmeal bait (Table III), read-out: Mortality after 9 days",80%
same,mortality at 1 %,"[4]; Deroceras reticulatum, po, 216 h, 1.0 % Metal in wheatmeal bait (Table III), read-out: Mortality after 9 days",80%
same,mortality at 5 %,"[4]; Deroceras reticulatum, po, 216 h, 5.0 % Metal in wheatmeal bait (Table III), read-out: Mortality after 9 days",80%
same,mortality at 10 %,"[4]; Deroceras reticulatum, po, 216 h, 10.0 % Metal in wheatmeal bait (Table III), read-out: Mortality after 9 days",80%
same,mortality at 1 %,"[4]; Deroceras reticulatum, po, at 1 per cent Aluminium content, non-choice test (Table II), read-out: mortality",100%
same,killed,[5],10/10
"CCC(=O)C=C(C)[O][Al]([O]C(C)=CC(=O)CC)[O]C(C)=CC(=O)CC [Example 20, Tris (2,4-hexanedionato) Al III]",Kill,[3]; 1 % a.i. in standard bait,1 x/10
same,Kill,[3]; 4 % a.i. in standard bait,0 x/10
same,Kill,[3]; 7 % a.i. in standard bait,4 x/10
same,Kill,[3]; 10 % a.i. in standard bait,1 x/10
same,Kill,[3]; 13 % a.i. in standard bait,5 x/10
same,Kill,[3]; 16 % a.i. in standard bait,5 x/10
"CCC(=O)C=C(CC)[O][Al]([O]C(=CC(=O)CC)CC)[O]C(=CC(=O)CC)CC [Example 21, Tris (3,5-heptanedionato) Al III]",Kill,[3]; 1 % a.i. in standard bait,1 x/10
same,Kill,[3]; 4 % a.i. in standard bait,3 x/10
same,Kill,[3]; 7 % a.i. in standard bait,0 x/10
same,Kill,[3]; 10 % a.i. in standard bait,1 x/10
same,Kill,[3]; 13 % a.i. in standard bait,1 x/10
same,Kill,[3]; 16 % a.i. in standard bait,2 x/10
CC1OC(C)OC(C)OC(C)O1 (centres unmarked) [Metaldehyde],Total Slugs 'Dead' or 'Immobilised' (Cumulative) Total D+I,[6],461
CNC(=O)Oc1cc(C)c(SC)c(C)c1 [Methiocarb],Total Slugs 'Dead' or 'Immobilised' (Cumulative) Total D+I,[6],557
Aluminium sulphate [reference compound],LC₅₀ values on glass,[1],around 20 µg metal cm⁻²
same,"LC₅₀ On glass (50 min)., Mean",[1],20.9 µg metal cm⁻²
same,"LC₅₀ On soil (10 days), Mean",[2],207.4 µg metal/cm²
same,Mortality after 7 days,[4]; 0.01 % Al in wheatmeal bait,1 x/10
same,Mortality after 7 days,[4]; 0.03 % Al in wheatmeal bait,2 x/10
same,Mortality after 7 days,[4]; 0.1 % Al in wheatmeal bait,3 x/10
same,Mortality after 7 days,[4]; 0.3 % Al in wheatmeal bait,3 x/10
same,Mortality after 7 days,[4]; 1.0 % Al in wheatmeal bait,5 x/10
same,Mortality after 7 days,[4]; 3.0 % Al in wheatmeal bait,2 x/10
same,killed,[5],0/10
"Tris (1-dimethoxy-2, 4-pentanedionato) Al III [Example 29]",Slugs dead,"[3]; total over six groups of ten slugs offered bait containing 1,4,7,10,13 or 16% a.i.",14 x/10
